Experimental data reported in the Kinase Knowledgebase extract (Sharma et al. 2016).

How the values were obtained:
PIK3CD (Human) [1] = target: PIK3CD (Human) (UniProt O00329); test: Enzyme Assay
PIK3CG (human) = PIK3CG (human) (UniProt P48736); test: Enzyme Assay
PIK3CA (human) [2] = target: PIK3CA (human) (UniProt P42336); test: Enzyme Assay
PIK3CD (Human) [3] = target: PIK3CD (Human) (UniProt O00329); test: Cell-Based Assay; conditions: rat-1
PIK3CA (human) [4] = target: PIK3CA (human) (UniProt P42336); test: Cell-Based Assay; conditions: rat-1

PIK3CD (Human), sequence (O00329 whole entry, looked up): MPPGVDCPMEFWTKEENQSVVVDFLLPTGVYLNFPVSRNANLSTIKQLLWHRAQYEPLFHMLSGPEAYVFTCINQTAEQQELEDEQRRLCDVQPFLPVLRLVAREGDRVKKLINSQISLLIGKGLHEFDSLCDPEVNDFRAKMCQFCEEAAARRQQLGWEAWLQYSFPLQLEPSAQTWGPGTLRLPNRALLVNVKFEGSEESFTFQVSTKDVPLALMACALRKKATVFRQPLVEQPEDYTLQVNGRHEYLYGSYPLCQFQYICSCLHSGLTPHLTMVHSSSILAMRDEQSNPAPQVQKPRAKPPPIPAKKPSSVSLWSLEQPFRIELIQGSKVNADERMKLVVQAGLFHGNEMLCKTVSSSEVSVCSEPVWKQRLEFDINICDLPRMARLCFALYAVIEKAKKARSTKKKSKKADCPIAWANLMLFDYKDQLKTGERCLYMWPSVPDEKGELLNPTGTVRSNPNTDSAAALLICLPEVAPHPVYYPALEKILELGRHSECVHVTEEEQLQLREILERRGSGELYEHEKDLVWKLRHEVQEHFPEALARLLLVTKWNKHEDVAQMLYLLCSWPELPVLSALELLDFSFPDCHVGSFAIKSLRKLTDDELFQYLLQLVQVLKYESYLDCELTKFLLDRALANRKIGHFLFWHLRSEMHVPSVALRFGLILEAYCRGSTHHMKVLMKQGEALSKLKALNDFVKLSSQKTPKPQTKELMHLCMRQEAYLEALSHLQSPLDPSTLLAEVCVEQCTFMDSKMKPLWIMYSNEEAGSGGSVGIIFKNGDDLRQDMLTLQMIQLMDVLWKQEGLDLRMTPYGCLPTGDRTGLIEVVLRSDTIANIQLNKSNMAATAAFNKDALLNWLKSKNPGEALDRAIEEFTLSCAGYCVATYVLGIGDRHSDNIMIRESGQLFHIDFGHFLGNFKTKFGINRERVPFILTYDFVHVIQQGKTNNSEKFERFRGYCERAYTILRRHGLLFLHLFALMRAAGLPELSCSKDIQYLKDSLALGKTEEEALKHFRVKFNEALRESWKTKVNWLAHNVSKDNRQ
PIK3CG (human), sequence (P48736 whole entry, looked up): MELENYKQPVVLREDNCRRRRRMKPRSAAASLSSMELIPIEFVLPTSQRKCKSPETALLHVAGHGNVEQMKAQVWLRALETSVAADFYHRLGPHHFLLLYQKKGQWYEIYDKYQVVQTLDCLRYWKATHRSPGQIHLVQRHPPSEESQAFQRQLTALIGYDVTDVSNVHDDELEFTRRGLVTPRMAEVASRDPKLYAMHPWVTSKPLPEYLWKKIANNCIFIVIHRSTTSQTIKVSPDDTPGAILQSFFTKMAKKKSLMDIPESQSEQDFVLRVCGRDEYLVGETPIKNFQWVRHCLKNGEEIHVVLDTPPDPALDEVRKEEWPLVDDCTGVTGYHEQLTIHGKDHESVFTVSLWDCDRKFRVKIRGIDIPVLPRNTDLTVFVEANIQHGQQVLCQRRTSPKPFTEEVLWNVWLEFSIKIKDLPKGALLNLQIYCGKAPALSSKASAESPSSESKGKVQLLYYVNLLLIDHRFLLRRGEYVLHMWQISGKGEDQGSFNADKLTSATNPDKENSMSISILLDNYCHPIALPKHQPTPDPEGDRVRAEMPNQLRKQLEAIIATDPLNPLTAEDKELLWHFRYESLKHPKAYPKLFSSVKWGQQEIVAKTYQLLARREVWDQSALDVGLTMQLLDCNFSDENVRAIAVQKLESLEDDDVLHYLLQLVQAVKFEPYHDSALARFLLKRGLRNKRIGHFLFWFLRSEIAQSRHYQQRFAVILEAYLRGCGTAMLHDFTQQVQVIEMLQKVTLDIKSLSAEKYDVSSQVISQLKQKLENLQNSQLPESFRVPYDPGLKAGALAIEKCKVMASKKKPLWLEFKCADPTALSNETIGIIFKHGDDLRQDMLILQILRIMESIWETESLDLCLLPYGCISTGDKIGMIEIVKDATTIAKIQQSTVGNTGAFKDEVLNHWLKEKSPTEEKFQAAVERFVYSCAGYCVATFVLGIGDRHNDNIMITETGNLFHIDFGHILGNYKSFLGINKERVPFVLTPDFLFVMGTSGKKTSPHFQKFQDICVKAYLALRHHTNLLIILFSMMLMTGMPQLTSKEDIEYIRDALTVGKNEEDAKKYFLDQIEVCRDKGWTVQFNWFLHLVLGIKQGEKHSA
PIK3CA (human), sequence (P42336 whole entry, looked up): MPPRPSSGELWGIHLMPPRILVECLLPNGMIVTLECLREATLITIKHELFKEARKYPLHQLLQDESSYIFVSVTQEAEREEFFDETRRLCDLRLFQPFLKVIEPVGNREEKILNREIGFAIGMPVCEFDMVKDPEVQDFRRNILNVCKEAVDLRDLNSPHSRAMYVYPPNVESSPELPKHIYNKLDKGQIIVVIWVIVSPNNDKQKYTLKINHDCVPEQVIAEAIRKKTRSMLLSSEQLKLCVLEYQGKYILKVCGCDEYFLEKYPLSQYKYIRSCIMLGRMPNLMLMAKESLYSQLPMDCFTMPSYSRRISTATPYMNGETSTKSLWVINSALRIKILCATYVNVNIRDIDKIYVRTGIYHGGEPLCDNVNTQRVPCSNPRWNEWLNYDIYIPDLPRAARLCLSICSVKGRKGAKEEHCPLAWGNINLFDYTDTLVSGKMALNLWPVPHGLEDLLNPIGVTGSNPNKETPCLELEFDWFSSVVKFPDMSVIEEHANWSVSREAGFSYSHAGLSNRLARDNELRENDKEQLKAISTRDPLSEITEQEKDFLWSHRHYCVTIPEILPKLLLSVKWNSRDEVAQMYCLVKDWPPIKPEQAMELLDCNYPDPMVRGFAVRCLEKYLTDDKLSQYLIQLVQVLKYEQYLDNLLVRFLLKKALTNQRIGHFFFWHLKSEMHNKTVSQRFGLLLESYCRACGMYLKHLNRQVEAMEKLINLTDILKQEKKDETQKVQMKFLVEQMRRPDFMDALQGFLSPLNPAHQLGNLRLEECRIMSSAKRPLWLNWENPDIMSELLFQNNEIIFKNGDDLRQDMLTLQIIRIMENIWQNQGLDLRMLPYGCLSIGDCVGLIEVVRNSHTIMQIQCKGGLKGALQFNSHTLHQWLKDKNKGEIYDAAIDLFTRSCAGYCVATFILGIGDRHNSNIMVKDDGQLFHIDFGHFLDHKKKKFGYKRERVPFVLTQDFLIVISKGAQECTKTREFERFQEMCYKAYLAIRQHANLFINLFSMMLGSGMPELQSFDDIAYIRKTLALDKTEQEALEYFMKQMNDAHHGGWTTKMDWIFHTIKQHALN

Row | IC50 (PIK3CD (Human) [1]) | IC50 (PIK3CG (human)) | IC50 (PIK3CA (human) [2]) | IC50 (PIK3CD (Human) [3]) | IC50 (PIK3CA (human) [4]) | Structure (SMILES)
1 | 12 nM | 170 nM | > 10000 nM | 121 nM | > 10000 nM | O=c1c2c(Cl)cccc2nc([C@@H]2CCCN2c2ncnc3[nH]cnc23)n1C1CCCCC1
2 | 9 nM | 70 nM | 340 nM | 77 nM | > 10000 nM | Cc1nc(N)nc(N2CCC[C@H]2c2nc3cccc(OC(F)F)c3c(=O)n2-c2ccccc2)c1C#N
3 | 510 nM | 5600 nM | > 10000 nM |  | > 10000 nM | O=c1c2c(Cl)cccc2nc([C@@H]2CCCN2c2ncnc3[nH]cnc23)n1[C@@H]1CCN(S(=O)(=O)C2CC2)C1
4 | 11 nM | 120 nM | 700 nM | 25 nM | 7160 nM | Cc1c(F)ccc2nc([C@@H]3CCCN3c3ncnc(N)c3C#N)n(-c3ccccc3)c(=O)c12
5 | 7200 nM | > 10000 nM | > 10000 nM | > 10000 nM | > 10000 nM | Cn1nccc1-n1c([C@@H]2CSCN2c2ncnc(N)c2C#N)nc2cccc(Cl)c2c1=O
6 | 14 nM | 150 nM | 7700 nM | 12 nM | 4590 nM | N#Cc1c(N)ncnc1N1CCC[C@H]1c1nc2cccc(Cl)c2c(=O)n1-c1cccnc1
7 | 12 nM | 590 nM | 2400 nM | 166 nM | > 10000 nM | N#Cc1c(N)ncnc1N1CCC[C@H]1c1nc2cccc(OC(F)F)c2c(=O)n1-c1ccccc1
8 | 24 nM | 96 nM | 1780 nM | 149 nM | > 10000 nM | Nc1nc(N2CCC[C@H]2c2nc3cccc(Cl)c3c(=O)n2C2CCCCC2)c2nc[nH]c2n1
9 | 23 nM | 230 nM | 3100 nM | < 3 nM | > 10000 nM | N#Cc1cnc(N)nc1N1CCC[C@H]1c1nc2cccc(C(F)(F)F)c2c(=O)n1-c1ccccc1
10 | 66 nM | 380 nM | 4000 nM | 32 nM | > 10000 nM | CO[C@H]1C[C@@H](c2nc3cccc(Cl)c3c(=O)n2N2CCOCC2)N(c2ncnc(N)c2C#N)C1
11 | 10 nM | 200 nM | 1800 nM | 198 nM | > 10000 nM | O=c1c2c(Cl)cccc2nc([C@@H]2CCCN2c2ncnc3[nH]cnc23)n1N1CCCCC1
12 | 240 nM | 460 nM | > 10000 nM | 152 nM | > 10000 nM | COc1ccc(-n2c([C@@H]3CCCN3c3ncnc(N)c3C#N)nc3cccc(Cl)c3c2=O)cn1
13 | 12 nM | 130 nM | 2300 nM | 291 nM | 8580 nM | Nc1nc(N2CCC[C@H]2c2nc3cccc(Cl)c3c(=O)n2N2CCCCC2)c2nc[nH]c2n1
14 | 660 nM | 1900 nM | > 10000 nM | 1400 nM | > 10000 nM | COc1ccc(-n2c([C@@H]3CCCN3c3ncnc4[nH]cnc34)nc3cccc(Cl)c3c2=O)cn1
15 | 8 nM | 280 nM | 4700 nM | 36 nM | > 10000 nM | N#Cc1c(N)ncnc1N1CCC[C@H]1c1nc2cccc(Cl)c2c(=O)n1C1CCOCC1
16 | 150 nM | 4300 nM | > 10000 nM | 318 nM | > 10000 nM | Nc1nc(N2CCC[C@H]2c2nc3cc(F)cc(F)c3c(=O)n2-c2ccccc2)c2nc[nH]c2n1
17 | 120 nM | > 10000 nM | > 10000 nM | 733 nM | > 10000 nM | O=c1c2c(F)cc(F)cc2nc([C@@H]2CCCN2c2ncnc3[nH]cnc23)n1-c1ccccc1
18 | 440 nM | > 10000 nM | 9300 nM | 1150 nM | > 10000 nM | COC(=O)N1CC[C@H](n2c([C@@H]3CCCN3c3ncnc4[nH]cnc34)nc3cccc(Cl)c3c2=O)C1
19 | 89 nM | 320 nM | 2000 nM | 109 nM | 7680 nM | CN(C)n1c([C@@H]2CCCN2c2ncnc3[nH]cnc23)nc2cccc(Cl)c2c1=O
20 | 26 nM | 58 nM | 1030 nM | 32 nM | 3300 nM | CC1(n2c([C@@H]3CCCN3c3nc(N)nc4[nH]cnc34)nc3cccc(Cl)c3c2=O)CC1
21 | 43 nM | > 10000 nM | > 10000 nM | 292 nM | > 10000 nM | N#Cc1c(N)ncnc1N1CCC[C@H]1c1nc2cc(F)cc(F)c2c(=O)n1-c1ccccc1
22 | 31 nM | 110 nM | 930 nM | 61 nM | 1160 nM | Cc1nc(N)nc(N2CCC[C@H]2c2nc3cccc(Cl)c3c(=O)n2C2CC2)c1C#N
23 | 7 nM | 22 nM | 72 nM | 5 nM | 1110 nM | Cc1nc(N)nc(N2CCC[C@H]2c2nc3cccc(Cl)c3c(=O)n2-c2ccccc2)c1C#N
24 | 120 nM | 3200 nM | > 10000 nM | 278 nM | > 10000 nM | N#Cc1c(N)ncnc1N1CCC[C@H]1c1nc2cccc(Cl)c2c(=O)n1N1CCCCC1

Row | IC50 (PIK3CD (Human) [1]) | IC50 (PIK3CG (human)) | IC50 (PIK3CA (human) [2]) | IC50 (PIK3CD (Human) [3]) | IC50 (PIK3CA (human) [4]) | Structure (SMILES)
25 | 43 nM | > 10000 nM | > 10000 nM | > 10000 nM | > 10000 nM | Cc1nc(N)c(C#N)c(N2CCC[C@H]2c2nc3cccc(C(F)(F)F)c3c(=O)n2-c2ccccc2)n1
26 | 100 nM | 1200 nM | > 10000 nM | 2480 nM | > 10000 nM | Cc1ccccc1-n1c([C@@H]2CCON2c2ncnc3[nH]cnc23)nc2cccc(Cl)c2c1=O
27 | 5 nM | 46 nM | 460 nM | 37 nM | 210 nM | Cc1nc(N)nc(N2CCC[C@H]2c2nc3cccc(C(F)(F)F)c3c(=O)n2-c2ccccc2)c1C#N
28 | 82 nM | 1100 nM | > 10000 nM | 262 nM | > 10000 nM | Cc1ccc(-n2c([C@@H]3CSCN3c3ncnc(N)c3C#N)nc3cccc(Cl)c3c2=O)s1
29 | 21 nM | 340 nM | 7900 nM | 142 nM | 7140 nM | O=c1c2c(Cl)cccc2nc([C@@H]2CSCN2c2ncnc3[nH]cnc23)n1-c1ccccc1C1CC1
30 | 15 nM | 31 nM | 1000 nM |  |  | Nc1nc(N2C[C@@H](O)C[C@H]2c2nc3cccc(Cl)c3c(=O)n2-c2ccccc2)c2nccn2n1
31 | 73 nM | 3100 nM | 5600 nM | 148 nM | > 10000 nM | Cc1nc(N)nc(N2CCC[C@H]2c2nc3cc(F)cc(F)c3c(=O)n2-c2ccccc2)c1C#N
32 | 35 nM | 140 nM | 2800 nM | 80 nM | > 10000 nM | O=c1c2c(Cl)cccc2nc([C@@H]2CCCN2c2ncnc3[nH]cnc23)n1N1CCOCC1
33 | 11 nM | 200 nM | 1600 nM | 20 nM | > 10000 nM | N#Cc1c(N)ncnc1N1CCC[C@H]1c1nc2cccc(Cl)c2c(=O)n1N1CCOCC1
34 | 34 nM | 103 nM | 4670 nM | 56 nM | 5150 nM | O=c1c2c(Cl)cccc2nc([C@@H]2CCCN2c2ncnn3ccnc23)n1-c1ccccc1
35 | 59 nM | 295 nM | 4550 nM | 179 nM | > 10000 nM | O=c1c2c(Cl)cccc2nc([C@@H]2CCCN2c2ncnc3[nH]cnc23)n1C1CCOCC1
36 | 20 nM | 170 nM | 3300 nM | 84 nM | > 10000 nM | O=c1c2c(Cl)cccc2nc([C@@H]2CCCN2c2ncnc3[nH]cnc23)n1-c1cccnc1
37 | 1430 nM | 445 nM | 5950 nM | 894 nM | 5460 nM | Cn1cnc2c(N3CCC[C@H]3c3nc4cccc(Cl)c4c(=O)n3C3CC3)nc(N)nc21
38 | 21 nM | 190 nM | 1100 nM | 26 nM | 3530 nM | CN(C)n1c([C@@H]2CCCN2c2ncnc(N)c2C#N)nc2cccc(Cl)c2c1=O
39 | 210 nM | 3700 nM | > 10000 nM |  | > 10000 nM | CS(=O)(=O)N1CC[C@@H](n2c([C@@H]3CCCN3c3ncnc4[nH]cnc34)nc3cccc(Cl)c3c2=O)C1
40 | 14 nM | 41 nM | 600 nM | < 3 nM | > 10000 nM | Cc1nc(N)nc(N2CCC[C@H]2c2nc3ccc(F)c(F)c3c(=O)n2-c2ccccc2)c1C#N
41 | 17 nM | 49 nM | 370 nM | 42 nM | 2090 nM | Cc1nc(N)nc(N2CCC[C@H]2c2nc3ccc(F)c(C)c3c(=O)n2-c2ccccc2)c1C#N
42 | 104 nM | 220 nM | 1320 nM | 73 nM | 3540 nM | CO[C@H]1C[C@@H](c2nc3cccc(Cl)c3c(=O)n2C2CC2)N(c2nc(N)nc(C)c2C#N)C1
43 | 200 nM | > 10000 nM | > 10000 nM | 2350 nM | > 10000 nM | COC(=O)N1CC[C@@H](n2c([C@@H]3CCCN3c3ncnc4[nH]cnc34)nc3cccc(Cl)c3c2=O)C1
44 | 7 nM | 81 nM | 1500 nM | 57 nM | 5990 nM | O=c1c2c(Cl)cccc2nc([C@@H]2CCON2c2ncnc3scnc23)n1-c1ccccc1
45 | 23 nM | 53 nM | 1230 nM | 29 nM | > 10000 nM | CO[C@H]1C[C@@H](c2nc3cccc(Cl)c3c(=O)n2N2CCOCC2)N(c2nc(N)nc(C)c2C#N)C1
46 | 56 nM | 420 nM |  | 222 nM | > 10000 nM | Cn1nccc1-n1c([C@@H]2CSCN2c2ncnc3[nH]cnc23)nc2cccc(Cl)c2c1=O
47 | 150 nM | 980 nM |  | 1810 nM | > 10000 nM | O=c1c2c(Cl)cccc2nc([C@@H]2CCON2c2ncnc3[nH]cnc23)n1-c1ccccc1
